According to US20260055083A1, “APOL1 INHIBITORS AND METHODS OF USE” (Maze Therapeutics, Inc., priority 2022, published 2026):

What was measured:
APOL1 G2 [1] = target: T1, APOL1 G2 (Homo sapiens, UniProt O14791, DEL388-389); assay: APOL1 G2 FLIPR calcium influx assay (HEK T-REx/GCaMP6f/APOL1 G2 K6.3 cells); assay type: cell-based; conditions: HEK293 clone expressing GCaMP6f, doxycycline-induced APOL1 G2; prevention of calcium influx; geometric mean of at least 2 assay runs
T1 construct: expressed in transfected cells; host or cells: HEK293/T-REx APOL1 G2 clone #2, doxycycline-inducible
T1 sequence (O14791 with tags, fused parts or gaps DEL388-389): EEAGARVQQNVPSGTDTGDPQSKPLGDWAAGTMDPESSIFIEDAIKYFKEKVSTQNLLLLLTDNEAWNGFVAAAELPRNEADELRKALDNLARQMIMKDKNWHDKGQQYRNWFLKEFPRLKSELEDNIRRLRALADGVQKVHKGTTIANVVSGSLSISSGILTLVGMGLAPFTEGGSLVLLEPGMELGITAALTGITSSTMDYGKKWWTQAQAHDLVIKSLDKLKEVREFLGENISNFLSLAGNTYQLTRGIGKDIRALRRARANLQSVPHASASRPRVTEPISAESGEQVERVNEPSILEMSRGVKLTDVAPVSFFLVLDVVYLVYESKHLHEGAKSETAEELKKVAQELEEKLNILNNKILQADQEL
Procedure: A HEK293 clonal cell line was generated to stably express GCaMP6f, a genetically encoded calcium indicator, and inducibly express APOL1 G2 (HEK T-REx/GCaMP6f/APOL1 G2 K6.3). Cells were maintained in the following standard complete medium: DMEM with 4.5 g/L glucose and sodium pyruvate (BioWhittaker, Lonza, BE12-614F), supplemented with 10% FBS Performance Plus (Gibco, 16000044), 1% penicillin-streptomycin (BioWhittaker, DE17-602E), 2 mM ultraglutamine-1 (BioWhittaker cat. BE 17-605/U1), 50 μg/mL Zeocin (InvivoGen, ant-zn), 2.5 μg/mL Blasticidin (InvivoGen, ant-bl-5), and 25 μg/mL Hygromycin (InvivoGen, ant-hg). Standard propagation conditions consisted of plating 9×10^6, 4×10^6, 2×10^6 cells in a T225 flasks to be processed after 2, 3, or 4 days, respectively.
A source plate was generated containing 20 serially diluted compounds in DMSO (duplicate 8-point dose response). Next, 0.8 μL of compounds were transferred from the source plate to a destination plate prefilled with 79.2 μL of Ca^2+ free Tyrode's buffer (130 mM NaCl, 5 mM KCl, 1 mM MgCl2, 5 mM NaHCO3, 20 mM HEPES at pH 7.4). The destination plate was placed on a plate shaker (5 seconds at 2000 rpm) to mix. […] All transfer and mixing steps were conducted with an CyBi®-Well dispenser.
Cells were split by gently washing with DPBS (Euroclone, ECB4004L), followed by a 5-minute incubation (humidified, 37° C. with 5% CO2) with trypsin-EDTA solution (Euroclone, ECB3052D). Detached cells were diluted with standard complete medium without selective agents, counted, and plated in a 384 MTP microplate (GR4332CPL, Twin Helix) (10,000 cells/well in 25 μl/well) using a MATRIX WellMate dispenser. Plates were placed into a humidified incubator (37° C. with 5% CO2) overnight. The following day, 20 μL of doxycycline (Sigma, D9891) at 20 ng/mL in standard complete medium was added to cells with a CyBi®Drop dispenser to induce APOL1 G2 expression. After a 6-hour incubation (humidified, 37° C. with 5% CO2), cells were washed 3 times with Ca^2+ free Tyrode's Buffer (130 mM NaCl, 5 mM KCl, 1 mM MgCl2, 5 mM NaHCO3, 20 mM HEPES at pH 7.4) using a BIOTEK Microplate washer, such that 10 μL of buffer remained in each well after the final wash. Assay plates were then stored at room temperature for 10 minutes. Next, 10 μL of diluted compounds were transferred to the assay plate from the 2× compound plate using a CyBi®-Well dispenser. Compound incubation was then carried out at room temperature for 10 minutes. The assay plate was transferred to the […] and 20 μL of 10 mM Ca^2+ (final concentration=5 mM) Tyrode's buffer was injected.
Table B1 below summarizes the data from this experiment. Unless otherwise specified, AC50 and values are reported as the geometric mean of at least 2 assay runs on separate days. Each run represents the average of a technical replicate, where each compound was assayed twice in the same plate. A superscript t symbol indicates a value from the average of a technical replicate from a single assay run, where each compound was assayed twice in the same plate.
The AC50 values in Table B1 below reflect the compound's ability to prevent calcium influx by inhibiting APOL1. […] Compounds in Table B1 are referred to by the corresponding Compound Number in Table 1, which is also referred to in the synthetic examples. When one or more of the numbered compounds are identified by stereochemistry (for example, (R)- or (S)-), the specific stereoisomer for which data is provided in Table B1 may be identified by the elution order of such compound as described in the synthetic examples. To illustrate, Compound 2 is the first-eluting enantiomer of step 4 of Example 1 and Compound 3 is the second-eluting enantiomer of step 4 of Example 1. Further, by way of illustration, Compound 27 is the first-eluting enantiomeric mixture in step 4 of Example 7 and Compound 28 is the second-eluting enantiomeric mixture in step 4 of Example 7. […]

APOL1 G2 [2] = target: T1, APOL1 G2; assay: APOL1 G2 HEK293 rescue of cell death caused by overexpression of APOL1 (CellTiter-Glo); assay type: cell-based; conditions: HEK293/T-REx APOL1 G2 clone #2, doxycycline induction, 17 hours, CellTiter-Glo luminescence; reversal of cell death; geometric mean of at least 2 assay runs
Procedure: A HEK293 clonal cell line overexpressing APOL1 G2 (HEK293/T-REx APOL1 G2/clone #2) was maintained in 1×DMEM-GlutaMax (Gibco, 10569-010) media with 10% tetracycline-free FBS (Takara Bio USA, 631101), 5 μg/mL Blasticidin (Gibco, A1113903), and 100 μg/mL Zeocin (Invitrogen, R25001) in T75 flasks. In preparation for the assay, this media was aspirated and 2 mL of prewarmed TrypLE Express (Gibco, 12605-010) was added to a flask to detach cells. The flask was then incubated (humidified, 37° C. with 5% CO2) for 3-5 minutes. Afterwards, 8 mL of prewarmed cell assay media (1×DMEM-GlutaMax media with 10% tetracycline-free FBS) was added to the trypsinized cells. The suspension was gently mixed, and cells were counted using a Countess Cell Counting Chamber (Invitrogen). The suspension was diluted using cell assay media to generate a working stock solution (166,667 cells/mL). Using a MultiDrop Combi (Thermo Electron Corp), 30 μL (final cell density=5,000 cells/well) of the working stock solution was dispensed into each well of white 384-well assay ready plates (Nunc™, 164610) containing 6 ng/mL doxycycline, to induce APOL1 expression, and compound. All compounds were plated in a duplicate 8-point dilution series that consisted of 3-fold stepwise dilutions (0.5% DMSO final). Assay plates were incubated (humidified, 37° C. with 5% CO2) for 17 hours. After the incubation, the plates were equilibrated at room temperature for 1 hour. Next, 15 μl of CellTiter-Glo® reagent (Promega, G7570) was added to each well using a MultiDrop Combi. Plates were placed on an orbital shaker (500 rpm) for 5 minutes to induce cell lysis and then incubated at room temperature for 10 minutes. Luminescence was measured on an Envision plate reader. Collaborative Drug Discovery software was utilized for graphing data. Plots were generated using a four parameter logistic curve fit.
Table B2 below provides the results from this experiment. Unless otherwise specified, EC50 values are reported as the geometric mean of at least 2 assay runs on separate days. Each run represents the average of a technical replicate, where each compound was assayed twice in the same plate. A superscript t symbol indicates a value from the average of a technical replicate from a single assay run, where each compound was assayed twice in the same plate. Compounds in Table B2 are referred to by the corresponding Compound Number in Table 1, which is also referred to in the synthetic examples. When one or more of the numbered compounds are identified by stereochemistry (for example, (R)- or (S)-), the specific stereoisomer for which data is provided in Table B2 may be identified by the elution order of such compound as described in the synthetic examples. To illustrate, Compound 2 is the first-eluting enantiomer of step 4 of Example 1 and Compound 3 is the second-eluting enantiomer of step 4 of Example 1. Further, by way of illustration, Compound 27 is the first-eluting enantiomeric mixture in step 4 of Example 7 and Compound 28 is the second-eluting enantiomeric mixture in step 4 of Example 7. Then, Compound 27 is separated into Compound 29 (the first-eluting enantiomer) and Compound 30 (the second-eluting enantiomer) in Example 8, and Compound 28 is separated into Compound 31 (the first-eluting enantiomer) and Compound 32 (the second-eluting enantiomer) in Example 8. Absolute stereochemistry of such compounds may be identified by methods known in the art.
Rescue EC50 values reported in Table B2 below represent the half-maximal effective concentration for reversal of cell death caused by overexpression of APOL1.

Compound	AC50 (APOL1 G2 [1]) [nM]	EC50 (APOL1 G2 [2]) [nM]
C[C@@H]1C[C@H](COc2ccc(S(=O)(=O)CCS(C)(=O)=O)cc2)CN1C1CCc2ccc(C#N)cc2C1 (single isomer, unassigned) [Compound 31]	773	234
C[C@@H]1C[C@H](COc2ccc(S(=O)(=O)CCS(C)(=O)=O)cc2)CN1C1CCc2ccc(C#N)cc2C1 (single isomer, unassigned) [Compound 32]	769	353
C[C@@H]1C[C@H](COc2ccc(S(=O)(=O)CCS(C)(=O)=O)cc2)CN1C1CCc2ccc(C#N)cc2C1 (single isomer, unassigned) [Compound 33, 7S or 7R)-7-[(2R,4S)-4-{[4-(2-methanesulfonylethanesulfonyl)phenoxy]methyl}-2-methylpyrrolidin-1-yl]-5,6,7,8-tetrahydronaphthalene-2-carbonitrile]	662	133
C[C@@H]1C[C@H](COc2ccc(S(=O)(=O)CCCS(C)(=O)=O)cc2)CN1C1CCc2ccc(C#N)cc2C1 (single isomer, unassigned) [Compound 34, (7R or 7S)-7-[(2R,4S)-4-{[4-(3-methanesulfonylpropanesulfonyl)phenoxy]methyl}-2-methylpyrrolidin-1-yl]-5,6,7,8-tetrahydronaphthalene-2-carbonitrile]	951	86.9
C[C@@H]1C[C@H](COc2ccc(S(=O)(=O)CCCS(C)(=O)=O)cc2)CN1C1CCc2ccc(C#N)cc2C1 (single isomer, unassigned) [Compound 35]	948	256
C[C@@H]1C[C@H](COc2ccc(S(=O)(=O)CCCS(C)(=O)=O)cc2)CN1C1CCc2ccc(C#N)cc2C1 (single isomer, unassigned) [Compound 36, (7S or 7R)-7-[(2R,4S)-4-{[4-(3-methanesulfonylpropanesulfonyl)phenoxy]methyl}-2-methylpyrrolidin-1-yl]-5,6,7,8-tetrahydronaphthalene-2-carbonitrile]	714	36.3

Continued, in another order:

AC50 (APOL1 G2 [1]) [nM]	Compound	EC50 (APOL1 G2 [2]) [nM]
590	CN=S(C)(=O)c1ccc(OC[C@H]2C[C@@H](C)N(C3CCc4ccc(C#N)cc4C3)C2)cc1 (single isomer, unassigned) [Compound 38, (7S or 7R)-7-[(2R,4S)-2-methyl-4-({4-[methyl(methylimino)oxo-λ^6-sulfanyl]phenoxy}methyl)pyrrolidin-1-yl]-5,6,7,8-tetrahydronaphthalene-2-carbonitrile]	65
1180	C[C@@H]1C[C@H](COc2ccc(S(=O)(=O)CCCS(C)(=O)=O)cc2)CN1C1CCc2c(C#N)cccc2C1 (single isomer, unassigned) [Compound 41, (6S or 6R)-6-[(2R,4S)-4-{[4-(3-methanesulfonylpropanesulfonyl)phenoxy]methyl}-2-methylpyrrolidin-1-yl]-5,6,7,8-tetrahydronaphthalene-1-carbonitrile]	62.8
1030	C[C@@H]1C[C@H](COc2ccc(S(=O)(=O)CCCS(C)(=O)=O)cc2)CN1C1CCc2c(C#N)cccc2C1 (single isomer, unassigned) [Compound 42, (6R or 6S)-6-[(2R,4S)-4-{[4-(3-methanesulfonylpropanesulfonyl)phenoxy]methyl}-2-methylpyrrolidin-1-yl]-5,6,7,8-tetrahydronaphthalene-1-carbonitrile]	227
1380	C[C@@H]1C[C@H](COc2ccc(S(=O)(=O)CCCS(C)(=O)=O)cc2)CN1C1CCc2c(C#N)cc(Cl)cc2C1 (single isomer, unassigned) [Compound 44, (6R or 6S)-3-chloro-6-[(2R,4S)-4-{[4-(3-methanesulfonylpropanesulfonyl)phenoxy]methyl}-2-methylpyrrolidin-1-yl]-5,6,7,8-tetrahydronaphthalene-1-carbonitrile]	312
